EC50 data for 21 compounds are collected here from patent US20110319379A1, “Substituted Indazole Amides And Their Use As Glucokinase Activators” (priority 2009, published 2011).

pEC50: −log10 of the molar value.

The target in one assay is T1, recombinant human glucokinase (Homo sapiens, UniProt P35557).
T1 construct: Full-length glucokinase (beta cell isoform) was His-tagged at the N-terminus and purified by a Ni column followed by size exclusion chromatography as described above; His tag; made in house; host or cells: E. coli BL21(DE3), vector pBCGK
T1 sequence (P35557 1-465): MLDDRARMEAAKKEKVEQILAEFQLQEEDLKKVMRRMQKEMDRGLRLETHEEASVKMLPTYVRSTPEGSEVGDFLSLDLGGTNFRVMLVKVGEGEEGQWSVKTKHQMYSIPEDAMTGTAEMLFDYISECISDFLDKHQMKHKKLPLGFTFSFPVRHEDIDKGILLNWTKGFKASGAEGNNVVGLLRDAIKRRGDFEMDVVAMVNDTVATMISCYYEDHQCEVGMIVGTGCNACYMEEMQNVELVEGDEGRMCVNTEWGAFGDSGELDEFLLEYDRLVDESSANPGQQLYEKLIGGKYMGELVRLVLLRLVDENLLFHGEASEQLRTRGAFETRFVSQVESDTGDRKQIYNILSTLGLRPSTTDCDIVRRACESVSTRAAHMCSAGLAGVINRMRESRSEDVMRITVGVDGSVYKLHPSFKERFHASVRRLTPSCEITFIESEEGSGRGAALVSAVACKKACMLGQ
In words: Assay 2: Evaluating Activator Potency in a Matrix Assay at Multiple Glucose Concentrations. The settings on record: Assay 2 matrix assay; 16 glucose concentrations; intrinsic EC50 = concentration affording a 50% reduction in the enzyme's Km (for glucose); read-out: Glucokinase EC50. In kind it is biochemical. As for the experimental part: Representative compounds of this invention were evaluated in biochemical assays (Assay 1 or Assay 2) to characterize their glucokinase activation properties.
The recombinant human glucokinase protein utilized in both assays was prepared and purified as described below.
BL21(DE3) cells (Invitrogen Corporation, Carlsbad, Calif.) containing pBCGK (C or N H is) vector were grown at 37° C. (in 2XYT) until the OD600 was between 0.6-1.0. Expression was induced by addition of isopropylthiogalactoside to a final concentration of 0.1-0.2 mM to the cells which were then incubated overnight at 23° C. The next day, cells were harvested via centrifugation at 5000 rpm for 15 minutes at 4° C. The cell pellet was stored at −80° C. for future purification.
Beta Cell Glucokinase His-Taq Purification Conditions: A Ni-NTA (Quigan, Germantown, Md.) column (15-50 mL) was used for separation. Two buffers were prepared, 1) a lysis/nickel equilibration and wash buffer and 2) a nickel elution buffer. The lysis/equilibration/wash buffer was prepared as such: 25 mM HEPES buffer at pH 7.5, 250 mM NaCl, 20 mM imidazole, and 14 mM β-mercaptoethanol as final concentrations. The elution buffer was prepared as such: 25 mM HEPES at pH 7.5, 250 mM NaCl, 400 mM imidazole, and 14 mM β-mercaptoethanol as final concentrations. The buffers were each filtered with a 0.22 μm filter prior to use. The cell pellet (1 L culture) was resuspended in 300 mL of the lysis/equilibration buffer. The cells were then lysed (3 times) with a Microfluidics Model 110Y microfluidizer (Microfluidics Corporation, Newton, Mass.). The slurry was centrifuged with a Beckman Coulter Model LE-80K ultracentrifuge (Beckman Coulter, Fullerton, Calif.) at 40,000 rpm for 45 minutes at 4° C. The supernatant was transferred to a chilled flask. A volume of 20 μl was saved for gel analysis. A Pharmacia AKTA (GMI, Inc., Ramsey, Minn.) purification system was used for separation. The prime lines were purged with lysis/equilibration buffer. The Ni-NTA column was equilibrated with 200 mL of the lysis/equilibration buffer at a flow rate of 5 mL/minute. The supernantant was loaded over the column at 4 mL/minute and the flow-through was collected in a flask. The unbound proteins were washed with lysis/equilibration buffer at a flow rate of 5 mL/minute until the ultraviolet reaches baseline. The protein was then eluted from the column with the imidazole elution buffer via imidazole gradient 20 mM to 400 mM over 320 mL. The column was then stripped of any additional protein with 80 mL of the elution buffer. The elution fractions were each 8 mL, for a total yield of 50 samples. Fractions were analyzed by sodium dodecyl sulfate polyacrylamide (SDS-PAGE) and the fractions containing protein of interest were pooled and concentrated to 10 mL using ultrafiltration cell with a 10,000 molecular weight cut-off (MWCO) Millipore membrane (Sigma-Aldrich, St. Louis, Mo.) under nitrogen gas (60 psi). Protein was further purified by size exclusion chromatography (SEC) using a […] (320 mL) (Amersham Pharmacia, Uppsala, Sweden). SEC was equilibrated with 450 mL sizing buffer containing 25 mM HEPES pH 7.0, 50 mM NaCl, and 5 mM dithiothreitol. Concentrated protein was then loaded over SEC and elution with 400 mL sizing buffer was performed overnight at 0.5 mL/minute. The elution fractions were 5 mL each. The fractions were analyzed by SDS-PAGE and protein containing fractions were pooled. Concentration was measured using Bradford Assay/BSA Standard. Purified protein was stored in small aliquots at −80° C.
Assay 2: Evaluating Activator Potency in a Matrix Assay at Multiple Glucose Concentrations
Utilizing an adaptation of this method, representative compounds of the current invention were evaluated at 22 different concentrations and 16 different glucose concentrations in a coupled enzyme assay system that detects glucokinase activity via depletion of β-NADH.
For the compound `CCn1cc2c(Oc3ccc(S(C)(=N)=O)cc3)cc(C(=O)Nc3ccc(C)cn3)cc2n1` (single isomer, unassigned) [Example 1CW, 2-ethyl-N-(5-methylpyridin-2-yl)-4-[4-(S-methylsulfonimidoyl)phenoxy]-2H-indazole-6-carboxamide], the pEC50 is 6.26.
Turning to `CCn1cc2c(Oc3ccc(S(C)(=N)=O)cc3)cc(C(=O)Nc3ccc(C)cn3)cc2n1` (single isomer, unassigned) [Example 1CX, 2-ethyl-N-(5-methylpyridin-2-yl)-4-[4-(S-methylsulfonimidoyl)phenoxy]-2H-indazole-6-carboxamide], the pEC50 was 5.86.
`CCn1cc2c(Oc3cnc(C(=O)N(C)C)cn3)cc(C(=O)Nc3cnc(OC)cn3)cc2n1` [Example 1AF, 4-(5-(dimethylcarbamoyl)pyrazin-2-yloxy)-2-ethyl-N-(5-methoxypyrazin-2-yl)-2H-indazole-6-carboxamide]: the pEC50 is 6.27.
Regarding `Cc1cnc(NC(=O)c2cc(Oc3ccc(C(=O)N(C)C)cc3)c3cn(C)nc3c2)cn1` [Example 1AG, 4-(4-(dimethylcarbamoyl)phenoxy)-2-methyl-N-(5-methylpyrazin-2-yl)-2H-indazole-6-carboxamide], the pEC50 is 6.15.
For `Cn1cc2c(Oc3cnc(C(=O)N4CCC4)cn3)cc(C(=O)Nc3cnn(C)n3)cc2n1` [Example 1AH, 4-(5-(azetidine-1-carbonyl)pyrazin-2-yloxy)-2-methyl-N-(2-methyl-2H-1,2,3-triazol-4-yl)-2H-indazole-6-carboxamide], the pEC50 is 4.44.
Same read-out and setting: the value for `CN(C)S(=O)(=O)c1ccc(Oc2cc(C(=O)Nc3cnn(C)n3)cc3nn(C)cc23)cc1` [Example 1AJ, 4-{4-[(dimethylamino)sulfonyl]phenoxy}-2-methyl-N-(2-methyl-2H-1,2,3-triazol-4-yl)-2H-indazole-6-carboxamide] was 6.15; that for `CNS(=O)(=O)c1ccc(Oc2cc(C(=O)Nc3cnc(C)cn3)cc3nn(C)cc23)cc1` [Example 1AK, 4-{4-[(methylamino)sulfonyl]phenoxy}-2-methyl-N-(5-methylpyrazin-2-yl)-2H-indazole-6-carboxamide] was 6.06; that for `Cc1cnc(NC(=O)c2cc(Oc3ccc(S(=O)(=O)N(C)C)nc3)c3cn(C)nc3c2)cn1` [Example 1AL, 4-({6-[(dimethylamino)sulfonyl]pyridin-3-yl}oxy)-2-methyl-N-(5-methylpyrazin-2-yl)-2H-indazole-6-carboxamide] was 5.50.
For the compound `CN(C)S(=O)(=O)c1ccc(Oc2cc(C(=O)Nc3ccn(C)n3)cc3nn(C)cc23)cn1` [Example 1AM, 4-({6-[(dimethylamino)sulfonyl]pyridin-3-yl}oxy)-2-methyl-N-(1-methyl-1H-pyrazol-3-yl)-2H-indazole-6-carboxamide], the pEC50 is 5.41.
Turning to `CCn1cc2c(Oc3cnc(N(C)S(C)(=O)=O)cn3)cc(C(=O)Nc3ccc(C)cn3)cc2n1` [Example 1AN, 2-ethyl-4-({5-[methyl(methylsulfonyl)amino]pyrazin-2-yl}oxy)-N-(5-methylpyridin-2-yl)-2H-indazole-6-carboxamide], the negative-log EC50 (pEC50) was 6.27.
Take `Cn1ccc(NC(=O)c2cc(Oc3ccc(S(C)(=O)=O)nc3)c3cn(C)nc3c2)n1` [Example 1AO, 2-methyl-N-(1-methyl-1H-pyrazol-3-yl)-4-{[6-(methylsulfonyl)pyridin-3-yl]oxy}-2H-indazole-6-carboxamide]: the pEC50 is 5.89.
For `Cc1ccc(NC(=O)c2cc(Oc3ccc(S(C)(=O)=O)nc3)c3cn(C)nc3c2)nc1` [Example 1AP, 2-methyl-N-(5-methylpyridin-2-yl)-4-{[6-(methylsulfonyl)pyridin-3-yl]oxy}-2H-indazole-6-carboxamide], the pEC50 was 5.84.
`Cc1cnc(NC(=O)c2cc(Oc3ccc(S(C)(=O)=O)nc3)c3cn(C)nc3c2)cn1` [Example 1AQ, 2-methyl-N-(5-methylpyrazin-2-yl)-4-{[6-(methylsulfonyl)pyridin-3-yl]oxy}-2H-indazole-6-carboxamide]: the pEC50 was 5.27.
As for `Cc1ccc(NC(=O)c2cc(Oc3ccc(S(C)(=O)=O)cc3C(F)(F)F)c3cn(C)nc3c2)nc1` [Example 1AR, 2-methyl-N-(5-methylpyridin-2-yl)-4-[4-(methylsulfonyl)-2-(trifluoromethyl)phenoxy]-2H-indazole-6-carboxamide], the pEC50 is 6.26.
On to `CCn1cc2c(Oc3cnc(NS(C)(=O)=O)cn3)cc(C(=O)Nc3ccc(C)cn3)cc2n1` [Example 1AT, 2-ethyl-N-(5-methylpyridin-2-yl)-4-({5-[(methylsulfonyl)amino]pyrazin-2-yl}oxy)-2H-indazole-6-carboxamide], for which the pEC50 is 5.31.
As to `Cn1ccc(NC(=O)c2cc(Oc3ccc(S(N)(=O)=O)cc3)c3cn(C)nc3c2)n1` [Example 1AU, 4-[4-(aminosulfonyl)phenoxy]-2-methyl-N-(1-methyl-1H-pyrazol-3-yl)-2H-indazole-6-carboxamide], the pEC50 was 5.21.
In the case of `Cc1ccc(NC(=O)c2cc(Oc3ccc4c(c3)CCS4(=O)=O)c3cn(C)nc3c2)nc1` [Example 1AV, 4-[(1,1-dioxido-2,3-dihydro-1-benzothien-5-yl)oxy]-2-methyl-N-(5-methylpyridin-2-yl)-2H-indazole-6-carboxamide], the pEC50 was 6.09.
Same read-out and setting: the value for `CCn1cc2c(Oc3ccc4c(c3)CCS4(=O)=O)cc(C(=O)Nc3ccc(C)cn3)cc2n1` [Example 1AW, 4-[(1,1-dioxido-2,3-dihydro-1-benzothien-5-yl)oxy]-2-ethyl-N-(5-methylpyridin-2-yl)-2H-indazole-6-carboxamide] was 6.01; that for `CCn1cc2c(Oc3ccc(S(C)(=O)=O)cc3)cc(C(=O)Nc3cnc(OC)cn3)cc2n1` [Example 1AX, 2-ethyl-N-(5-methoxypyrazin-2-yl)-4-[4-(methylsulfonyl)phenoxy]-2H-indazole-6-carboxamide] was 6.25.

Still in this assay, the particulars now being: Glucokinase EC50, Assay 2 matrix assay; 16 glucose concentrations; intrinsic EC50 = concentration affording a 50% reduction in the enzyme's Km (for glucose).
On to `Cc1cnc(NC(=O)c2cc(Oc3ccc(S(=O)(=O)N(C)C)cc3)c3cn(C)nc3c2)cn1` [Example 1AI, 4-{4-[(dimethylamino)sulfonyl]phenoxy}-2-methyl-N-(5-methylpyrazin-2-yl)-2H-indazole-6-carboxamide], for which the pEC50 was 6.37.
On to `Cc1cnc(NC(=O)c2cc(Oc3ccc(S(N)(=O)=O)cc3)c3cn(C)nc3c2)cn1` [Example 1AS, 4-[4-(aminosulfonyl)phenoxy]-2-methyl-N-(5-methylpyrazin-2-yl)-2H-indazole-6-carboxamide], for which the pEC50 was 5.64.
